Measurements reported in US20220105183A1, “MICRO-NANO STRUCTURE FORMED BY SELF-ASSEMBLING ORGANIC SMALL MOLECULE COMPOUND AND USE THEREOF” (Qingdao University of Science and Technology, priority 2018, published 2022).

Legend:
[1] = TEM, cryo-TEM and AFM of the self-assembled micro-nano structure; assay type: physicochemical
Procedure: Taking the self-assembled micro-nano structure of Compound II-1 as an example, II-1 was dissolved in DMSO (also can be an organic solvent such as ethanol) to prepare a 2 mM storage solution, and a small amount of storage solution was added to deionized water to prepare 20 μM working solution. Took 10 μL and dropped it on copper mesh, observed and analyzed under transmission electron microscope (TEM), cryo-transmission electron microscope. Took 10 μL and dropped it on mica plate, observed and analyzed under atomic force microscope (AFM). In FIGS. 5, A, B, C and D were TEM photographs, cryo-transmission electron microscope photographs, AFM photographs, and AFM analysis data, respectively. According to the photographs and data, II-1 was self-assembled into nanosheets with a diameter of 40-70 nm and a thickness of 3.7-3.9 nm. […]

4T1 cells [2] = test: Photoacoustic imaging in subcutaneous metastasis model mice; assay type: in vivo, nude mice; conditions: 200 μL (300 μmoL) tail vein, multispectral photoacoustic tomography
Procedure: (§1) The left side of 6-week-old female nude mice was injected subcutaneously with […] 4T1 cells to grow the tumor volume to 60 mm^3.
200 μL II-1 (300 μmoL) was injected into the mice of the experimental group through the tail vein. Monitored with multispectral photoacoustic tomography at different times. […] With the increase of time, until 24 hours, there was a photoacoustic signal at the tumor site.

[3] = UV absorption, fluorescence emission and quantum yield in solutions of different polarities; assay type: physicochemical
Procedure: The Compound II-1 of the present invention was prepared as a 2 mM storage solution in DMSO, and then 10 μL was added to 2 mL of solutions with different polarities (including water, dimethyl sulfoxide, N,N-dimethylformamide, methanol, ethanol, acetone, methylene chloride, acetonitrile), a UV spectrophotometer was used to test the UV absorption and to find the maximum absorption wavelength. The molar extinction coefficient of II-1 in solutions of different polarities was calculated from the ultraviolet absorption spectrum. Excited by the maximum absorption wavelength, the fluorescence emission spectrum was tested by a fluorescence spectrometer, the data was plotted with origin and the integral area was calculated. The fluorescence quantum yield φx, φx=φs(Fx/Fs)(As/Ax)(λexs/λexx)(nx/ns)^2, was calculated from the obtained data to obtain the characteristic parameters of Compound II-1 in solutions of different polarities (Table 3).

4T1 cells [4] = test: Fluorescence imaging in subcutaneous metastasis model mice; assay type: in vivo, nude mice; conditions: 200 μL (1 mg/mL) tail vein
Procedure: as §1
In the experimental group, 200 μL of II-1 (1 mg/mL) was injected into the tail vein of mice. After injection, the living imager was used to monitor at different times. […] Then they were dissected, and the heart, liver, spleen, lung, kidney and tumor were imaged by fluorescence. […] This proves that Compound II-1 targets the tumor site very well.

[5] = Photoacoustic imaging test in aqueous solution; assay type: physicochemical; conditions: 5, 10, 20 and 40 μM in water
Procedure: In the experimental group, 2.5, 5, 10 and 20 μL of Compound II-1 (concentrations of 5, 10, 20 and 40 μM, respectively) were respectively added to 1 mL of water, and the test solution was placed in the prosthesis for photoacoustic imaging test.

[6] = Photothermal stability, repeated 808 nm irradiation and cooling; assay type: physicochemical; conditions: sample No. 3, 20 μM, 808 nm laser 9 minutes, natural cooling, 5 times
Procedure: We selected sample No. 3 to test the photothermal stability experiment. As shown in the right figure of FIG. 8, sample No. 3 was irradiated with 808 nm laser for 9 minutes and then the temperature increased from room temperature 30° C. to 62° C., and then allowed to naturally cool down to room temperature, and irradiated with 808 nm laser again for 9 minutes, then naturally cooled down, and repeated for 5 times. […] After 9 minutes of irradiation, the temperature was raised by […], and then returned to room temperature.

[7] = 20 μM in deionized water, TEM/AFM

CCN1C(=CC=C2CCCC(C=CC3=C(C#N)C(=C(C#N)C#N)OC3(C)C)=C2Cl)C(C)(C)c2ccccc21 [II-1]
nanosheet diameter [1, 7]: 40-70 nm
nanosheet thickness [1, 7]: 3.7-3.9 nm
Morphology ([1]; micro-nano structure in aqueous solution, AFM and TEM): nano-sheet
time at which a clear photoacoustic signal was found at the tumor site (4T1 cells [2]): 4 h
time until which there was a photoacoustic signal at the tumor site (4T1 cells [2]): 24 h
Φ (fluorescence quantum yield) ([3]; N,N-dimethylformamide): 0.19%
ε*10^4 ([3]; N,N-dimethylformamide): 7.92 M^−1cm^−1
λem ([3]; N,N-dimethylformamide): 853 nm
λmax ([3]; N,N-dimethylformamide): 844 nm
Φ (fluorescence quantum yield) ([3]; acetone): 0.29%
ε*10^4 ([3]; acetone): 8.91 M^−1cm^−1
λem ([3]; acetone): 851 nm
λmax ([3]; acetone): 832 nm
Φ (fluorescence quantum yield) ([3]; acetonitrile): 0.35%
ε*10^4 ([3]; acetonitrile): 9.15 M^−1cm^−1
λem ([3]; acetonitrile): 850 nm
λmax ([3]; acetonitrile): 832 nm
Φ (fluorescence quantum yield) ([3]; dichloromethane): 0.35%
ε*10^4 ([3]; dichloromethane): 8.55 M^−1cm^−1
λem ([3]; dichloromethane): 850 nm
λmax ([3]; dichloromethane): 834 nm
Φ (fluorescence quantum yield) ([3]; dimethyl sulfoxide): 0.12%
ε*10^4 ([3]; dimethyl sulfoxide): 10.24 M^−1cm^−1
λem ([3]; dimethyl sulfoxide): 854 nm
λmax ([3]; dimethyl sulfoxide): 848 nm
Φ (fluorescence quantum yield) ([3]; ethanol): 0.25%
ε*10^4 ([3]; ethanol): 10.74 M^−1cm^−1
λem ([3]; ethanol): 851 nm
λmax ([3]; ethanol): 828 nm
Φ (fluorescence quantum yield) ([3]; methanol): 0.19%
ε*10^4 ([3]; methanol): 11.24 M^−1cm^−1
λem ([3]; methanol): 850 nm
λmax ([3]; methanol): 830 nm
Φ (fluorescence quantum yield) ([3]; water): 0.11%
ε*10^4 ([3]; water): 2.76 M^−1cm^−1
λem ([3]; water): 840 nm
λmax ([3]; water): 730 nm
whole-body fluorescence distribution (4T1 cells [4]; after 24 hours): all enriched in the tumor site
fluorescence of dissected heart, liver, spleen, lung, kidney and tumor (4T1 cells [4]; dissected after 24 hours): the fluorescence was very strong at tumor site, with weak fluorescence in the liver, and no fluorescence in other parts
abnormalities in nude mice (4T1 cells [4]; within 24 hours): no abnormalities such as spasms and convulsions occurred
photoacoustic signal against concentration [5]: the photoacoustic signal increased with the increase of the concentration of Compound II-1
wavelength of the strongest photoacoustic signal [5]: 710-750 nm
temperature raised by, every time in 5 repeated irradiations [6]: 25 °C
temperature reached every time in 5 repeated irradiations [6]: at least 55 °C
